We go through eight compounds from PubChem BioAssay (NCI).

Several values for one entry are separate records, joined by “and”; a condition that tells them apart may be missing. Identical values can stand only once.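 Protocol summary: plate cells (96-well), add compound at 5 concentrations, incubate 48 h, interpolate endpoints linearly. GI50 = concentration required for 50% inhibition of growth. TGI denotes the concentration required for complete inhibition of growth.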

What all share (test): NCI-60 cell line screen, 48 h
Assay [1] relates to LOX IMVI melanoma.
The subject of assay [2] is HS 578T breast.
Assay [3] relates to SF-539 CNS.
In assay [4] the test system is RPMI-8226 leukemia.
Assay [5] relates to U251 CNS.
In assay [6] the test system is UO-31 renal.
Assay [7] concerns SF-268 CNS.
The test system of assay [8] is OVCAR-3 ovarian.
The subject of assay [9] is TK-10 renal.
Assay [10] concerns MALME-3M melanoma.
For assay [11], the system named is RXF 393 renal.
Assay [12] deals with SK-MEL-2 melanoma.
Assay [13] has as its system PC-3 prostate.
Assay [14] relates to HOP-62 NSCLC.
For assay [15], the system named is NCI/ADR-RES ovarian.
Assay [16] deals with MDA-N.
For assay [17], the system named is HOP-92 NSCLC.
Assay [18] has as its system NCI-H23 lung.
Assay [19] relates to COLO 205 colon.

For the compound `O=C1c2ccccc2/C=C\C(c2ccccc2)=N/N1c1ccccc1Cl`, the TGI in [1] is more than 100 µM; in assay [2], more than 100 µM; in [3] it was more than 100 µM; in assay [4] it was 80.5 µM; in [5] it was 63.5 µM; in assay [6], 98.8 µM. Besides, the TGI in [7] was more than 100 µM; in [8], more than 100 µM; in assay [9] it was more than 100 µM; in assay [10], 71.4 µM; in assay [11], 47.7 µM; in assay [12], more than 100 µM. Also, the TGI in assay [13] stood at 28.6 µM; in [14], 92.8 µM; in assay [15], 63.5 µM; in assay [16] it was 14.7 µM; in [17] it was 78.4 µM; in assay [18], 93.6 µM.

Regarding `Nc1nc2c(c(=O)[nH]1)NC(CCNc1ccc(C(=O)O)cc1)CN2` (centres undefined), the TGI in [1], in assay [2], in assay [3], in [4], in [5] and in assay [6] was more than 100 µM each time. The TGI in assay [7], in [8], in [9], in assay [10], in [11] and in [19] was more than 100 µM each time. Moreover, the TGI in [12], in assay [13], in assay [14], in assay [15], in [16] and in assay [17] was more than 100 µM each time. In addition, the TGI in assay [18] was more than 100 µM.

For `Nc1ncnc2c1N=C(c1ccccc1)CC(c1ccccc1)N2` (centres undefined), the TGI in assay [1], in assay [2], in assay [3], in assay [4], in assay [5] and in assay [6] was more than 100 µM in each case. Also, the TGI in assay [7], in [8], in [9], in [10], in assay [11] and in assay [19] was more than 100 µM throughout. Also, the TGI in [12], in [13], in assay [14], in [15], in assay [16] and in assay [17] was more than 100 µM in each case. In [18], this compound displayed a TGI of more than 100 µM.

Take `C=C(Cl)C(Cl)(CBr)CCC(Br)C(C)(C)Cl` (centres undefined): the TGI was 12.4 µM and 29.7 µM and 33.6 µM in assay [1]; 5.25 µM and 5.08 µM and 9.16 µM in [2]; 1.12 µM and 2.69 µM and 3.68 µM in assay [3]; 1.33 µM and 1.56 µM and 3.22 µM in assay [4]; 2.08 µM and 0.925 µM and 2.71 µM in [5]; 3.71 µM and 3.73 µM and 11.3 µM in [6]. The TGI is 3.13 µM and 1.97 µM and 9.92 µM in assay [7]; 3.09 µM and 1.96 µM and 4.78 µM in [8]; 3.64 µM and 3.87 µM and 7.61 µM in assay [9]; 31.9 µM and 21 µM and 30.8 µM in assay [10]; 3.92 µM and 0.991 µM and 4.49 µM in assay [11]; 4.02 µM and 7.41 µM and 31.6 µM in assay [19]. For the same compound, the TGI in assay [12] was 4.17 µM; in assay [13], 2.42 µM and 2.17 µM and 3.02 µM; in [14], 1.84 µM and 2.01 µM and 2.76 µM; in assay [15] it was 7.18 µM and 4.48 µM and 33.2 µM; in assay [16] it was 8.91 µM and 3.02 µM and 21.6 µM; in [17] it was 3.5 µM and 2.72 µM and 4.84 µM. Further, in assay [18], the TGI is 40.7 µM and 33.8 µM and > 70.2 µM. In addition, in assay [2], the GI50 was 802 nM.

Take `CC(=O)Oc1ccc(/C=C/C(=O)NCCOC(=O)/C=C/c2ccc(OC(C)=O)c(OC(C)=O)c2)cc1OC(C)=O`: the TGI in assay [1] was 38.6 µM; in [2], more than 100 µM; in assay [3], more than 100 µM; in assay [4], 90.5 µM; in assay [5] it was more than 100 µM; in assay [6], 83.3 µM. The TGI was more than 100 µM in assay [7]; 42 µM in assay [8]; more than 100 µM in [9]; more than 100 µM in [10]; 47.4 µM in assay [11]; more than 100 µM in [19]. Also, the TGI is more than 100 µM in [12]; more than 100 µM in assay [13]; more than 100 µM in assay [14]; more than 100 µM in assay [15]; more than 100 µM in [16]; 95.6 µM in assay [17]. This compound showed a TGI in assay [18] of 79.4 µM.

`CC(=O)O[C@H]1C[C@H]2[C@@H]([C@H](OC(C)=O)C[C@@H]3CC4(CC[C@@]32C)OOC2(CCCCC2)OO4)[C@@H]2CC[C@H]([C@H](C)CCC(=O)O)[C@@]12C`: the TGI in assay [1] came out at 15.8 µM; in assay [2] it was 9.32 µM; in assay [3], 20.3 µM; in assay [4] it was 20.7 µM; in [5], 17.7 µM; in [6], 11 µM. The TGI in assay [7] came to 26.8 µM; in assay [8], 37.2 µM; in [9], 27 µM; in assay [10], 34.3 µM; in assay [11], 31.3 µM; in assay [19], 14 µM. Further, the TGI amounted to 26.5 µM in assay [12]; 22.2 µM in [13]; 5.93 µM in [14]; 19 µM in [15]; 26.9 µM in assay [16]; 7.1 µM in [17]. The same compound displayed a TGI in assay [18] of 16.6 µM.

As for `COC(=O)c1ccccc1/C=C1\Cc2ccc3ccccc3c2C1C` (centres undefined), the TGI in assay [1], in assay [2], in assay [3], in [4], in [5] and in assay [6] was more than 100 µM throughout. For the same compound, the TGI in assay [7], in [8], in assay [9], in assay [10], in assay [11] and in assay [19] was more than 100 µM throughout. Besides, the TGI in [12], in [13], in assay [15], in [16] and in assay [17] was more than 100 µM in each case.

`CCOc1cc2c(cc1O)CC[C@@H]1[C@@H]2CC[C@]2(C)[C@@H](O)CC[C@@H]12`: the TGI was 21 µM in assay [1]; more than 82.8 µM in assay [2]; 0.0426 µM in [3]; 7.86 µM in assay [4]; 19.3 µM in assay [5]; 63.1 µM in [6]. Moreover, the TGI in [7] amounted to 48.5 µM; in assay [8] it was 0.76 µM; in assay [10] it was 50 µM; in assay [11], 0.816 µM; in [19] it was 33.5 µM; in [12] it was 64.8 µM. Further, the TGI is 40.8 µM in assay [13]; 15.1 µM in assay [14]; 8.98 µM in assay [15]; less than 0.0198 µM in assay [16]; 29.6 µM in assay [17]; 24.9 µM in [18].
